The values below are quoted from earlier work in patent publication US20230149410A1, “TREATMENT OF CONDITIONS ASSOCIATED WITH THYROID HORMONE” (priority 2020, published 2023).

Where two headings read alike, the source gives them in different places.

For the data set the following is noted: profound hypothyroidism after birth, treated immediately after birth.

As to `N[C@@H](Cc1cc(I)c(Oc2cc(I)c(O)c(I)c2)c(I)c1)C(=O)O` [levothyroxine], the “thyroid status by thyroid hormone testing in plasma or serum (blood)” value is reported as “rendered chemically euthyroid”. For the same molecule, the “thyroid status by thyroid hormone testing in plasma or serum (blood)” value (listed as T4) was “became chemically euthyroid”.
